Source: patent US20230100838A1 (Revolution Medicines, Inc., priority 2019, published 2023)

What was measured:
[1] = biological target: T1, GDP-loaded K-Ras (1-169) G12D, C51S, C80L, C118S (Homo sapiens, UniProt P01116, C118S/C51S/C80L/G12D); assay: K-Ras G12D(GDP) cross-linking assay (conjugate formation, TOF mass spectrometry); assay type: binding; design: key: 0: No observed x-linking; +: 0 < x ≤ 20; ++: 20 < x ≤ 40; +++: 40 < x ≤ 100; settings: Table 5; percent covalently modified K-Ras by MS; room temperature; typical compound conc. 2, 10, 25 μM, endpoints 1 and 24 h
T1 construct: GDP-loaded K-Ras (1-169) G12D, C51S, C80L, C118S
Protocol: (§1) Protocol: K-Ras G12D(GDP) Cross-Linking Assay
(§2) Note: while the following protocol outlines the procedure for K-Ras G12D(GDP), a person of skill in the art may substitute other Ras proteins, and may also substitute a non-hydrolyzable GTP analog for GDP to study GTP bound Ras protein.
(§3) GDP-loaded K-Ras (1-169) G12D, C51S, C80L, C118S and GDP-loaded K-Ras (1-169) C51S, C80L, C118S were adjusted to 50 μM in K-Ras assay buffer (12.5 mM HEPES, 75 mM NaCl and 1 mM MgCl2 at pH 7.4). A 5 μL aliquot of each protein solution was added to each well of a 96-well microplate containing 40 μL of assay buffer. Initial compound stocks were prepared in DMSO at 100 times their final assay concentration. Compounds were then diluted 10-fold into K-Ras assay buffer to 10 times their final concentration. A 5 μL aliquot of each diluted compound solution was added to each protein solution in the 96-well microplate to initiate the reaction, which then proceeded at room temperature. Typical final compound concentrations were 2, 10, and 25 μM. At each time point, the reactions were analyzed immediately or quenched with 5 μL of a 5% formic acid solution and kept at 4° C. until analysis. Typical assay endpoints were 1 and 24 h.
(§4) Data collection took place on an Agilent 6230 TOF Mass Spectrometer. Complete reactions were injected onto a C4 reverse-phase column to separate protein from buffer components prior to entering the mass spectrometer. The proteins were eluted from the column by increasing acetonitrile fraction in the mobile phase and fed directly into the mass analyzer. Initial analysis of raw data took place in Agilent MassHunter BioConfirm software and consisted of deconvolution of multiple protein charge states with the maximum entropy algorithm, with a mass step of 1 Da. The heights of all deconvoluted protein masses were exported for further data analysis. The percent modification of each protein was then determined by calculating the peak height of the covalently modified K-Ras species as a percentage of the sum total of K-Ras protein peak height.

[2] = biological target: T2, GDP-loaded K-Ras (1-169) C51S, C80L, C118S (Homo sapiens, UniProt P01116, C118S/C51S/C80L); assay: K-Ras WT (GDP) cross-linking assay (conjugate formation, TOF mass spectrometry); assay type: binding; design: key: 0: No observed x-linking; +: 0 < x ≤ 20; ++: 20 < x ≤ 40; +++: 40 < x ≤ 100; settings: Table 5; percent covalently modified K-Ras by MS; room temperature; typical compound conc. 2, 10, 25 μM, endpoints 1 and 24 h
T2 construct: GDP-loaded K-Ras (1-169) C51S, C80L, C118S
Protocol: as §1, §2, §3, §4

In the case of COC(=O)[C@@H]1CN1C(=O)N1CCN(c2nc(OC[C@@H]3CCCN3C)nc3c2CCN(c2cccc4cccc(C)c24)C3)C[C@@H]1CC#N [Example 109, methyl (S)-1-((S)-2-(cyanomethyl)-4-(7-(8-methylnaphthalen-1-yl)-2-(((S)-1-methylpyrrolidin-2-yl)methoxy)-5,6,7,8-tetrahydropyrido[3,4-d]pyrimidin-4-yl)piperazine-1-carbonyl)aziridine-2-carboxylate], the “G12D x-linking (%)” value [1] is reported as “+ (0 < x ≤ 20)” and the “WT x-linking (%)” value [2] is reported as “+ (0 < x ≤ 20)”.
For Cc1ccc2[nH]ncc2c1N1CCc2c(nc(OC[C@@H]3CCCN3C)nc2N2CCN(C(=O)[C@H]3CN3)[C@@H](CC#N)C2)C1 [Example 110, 2-((S)-1-((R)-aziridine-2-carbonyl)-4-(7-(5-methyl-1H-indazol-4-yl)-2-(((S)-1-methylpyrrolidin-2-yl)methoxy)-5,6,7,8-tetrahydropyrido[3,4-d]pyrimidin-4-yl)piperazin-2-yl)acetonitrile], the “G12D x-linking (%)” value [1] was “+ (0 < x ≤ 20)” and the “WT x-linking (%)” value [2] was “+ (0 < x ≤ 20)”.
In the case of Cc1ccc2[nH]ncc2c1N1CCc2c(nc(OC[C@@H]3CCCN3C)nc2N2CCN(C(=O)[C@@H]3CN3)[C@@H](CC#N)C2)C1 [Example 111, 2-((S)-1-((S)-aziridine-2-carbonyl)-4-(7-(5-methyl-1H-indazol-4-yl)-2-(((S)-1-methylpyrrolidin-2-yl)methoxy)-5,6,7,8-tetrahydropyrido[3,4-d]pyrimidin-4-yl)piperazin-2-yl)acetonitrile], the “G12D x-linking (%)” value [1] is reported as “+ (0 < x ≤ 20)” and the “WT x-linking (%)” value [2] is reported as 0.
CN1CCC[C@H]1COc1nc2c(c(N3CCN(C(=O)[C@H]4CN4)[C@@H](CC#N)C3)n1)CCN(c1cccc3cccc(Cl)c13)C2 [Example 112, 2-((S)-1-((R)-aziridine-2-carbonyl)-4-(7-(8-chloronaphthalen-1-yl)-2-(((S)-1-methylpyrrolidin-2-yl)methoxy)-5,6,7,8-tetrahydropyrido[3,4-d]pyrimidin-4-yl)piperazin-2-yl)acetonitrile] was tested, and the “G12D x-linking (%)” value [1] was “++ (20 < x ≤ 40)” and the “WT x-linking (%)” value [2] was 0.
With CN1CCC[C@H]1COc1nc2c(c(N3CCN(C(=O)[C@@H]4CN4)[C@@H](CC#N)C3)n1)CCN(c1cccc3cccc(Cl)c13)C2 [Example 113, 2-((S)-1-((S)-aziridine-2-carbonyl)-4-(7-(8-chloronaphthalen-1-yl)-2-(((S)-1-methylpyrrolidin-2-yl)methoxy)-5,6,7,8-tetrahydropyrido[3,4-d]pyrimidin-4-yl)piperazin-2-yl)acetonitrile] the “G12D x-linking (%)” value [1] was “+ (0 < x ≤ 20)” and the “WT x-linking (%)” value [2] was “+ (0 < x ≤ 20)”.
CN1CCC[C@H]1COc1nc2c(c(N3CCN(C(=O)[C@H]4CN4)[C@@H](CC#N)C3)n1)CCN(c1cc(O)cc3ccccc13)C2 [Example 114] was tested, and the “G12D x-linking (%)” value [1] was “++ (20 < x ≤ 40)” and the “WT x-linking (%)” value [2] was 0.
With CN1CCC[C@H]1COc1nc2c(c(N3CCN(C(=O)[C@@H]4CN4)[C@@H](CC#N)C3)n1)CCN(c1cc(O)cc3ccccc13)C2 [Example 115] the “G12D x-linking (%)” value [1] was “+ (0 < x ≤ 20)” and the “WT x-linking (%)” value [2] was 0.
With C#CCCN1CCC[C@H]1COc1nc2c(c(N3CCN(C(=O)[C@H]4CN4)[C@@H](CC#N)C3)n1)CCN(c1cccc3cccc(C)c13)C2 [Example 116, 2-((S)-1-((R)-aziridine-2-carbonyl)-4-(2-(((S)-1-(but-3-yn-1-yl)pyrrolidin-2-yl)methoxy)-7-(8-methylnaphthalen-1-yl)-6,6,7,8-tetrahydropyrldo[3,4-d]pyrimidin-4-yl)piperazin-2-yl)acetonitrile] the “G12D x-linking (%)” value [1] was “+ (0 < x ≤ 20)” and the “WT x-linking (%)” value [2] was “+ (0 < x ≤ 20)”.
For C#CCCN1CCC[C@H]1COc1nc2c(c(N3CCN(C(=O)[C@@H]4CN4)[C@@H](CC#N)C3)n1)CCN(c1cccc3cccc(C)c13)C2 [Example 117, 2-((S)-1-((S)-aziridine-2-carbonyl)-4-(2-(((S)-1-(but-3-yn-1-yl)pyrrolidin-2-yl)methoxy)-7-(8-methylnaphthalen-1-yl)-5,6,7,8-tetrahydropyrido[3,4-d]pyrimidin-4-yl)piperazin-2-yl)acetonitrile], the “G12D x-linking (%)” value [1] was “+ (0 < x ≤ 20)” and the “WT x-linking (%)” value [2] was 0.
In the case of CC(=O)N1C[C@H]1CN1CCN(c2nc(OC[C@@H]3CCCN3C)nc3c2CCN(c2cccc4cccc(C)c24)C3)C[C@@H]1CC#N [Example 118, 2-((S)-1-(((R)-1-acetylaziridin-2-yl)methyl)-4-(7-(8-methylnaphthalen-1-yl)-2-(((S)-1-methylpyrrolidin-2-yl)methoxy)-5,6,7,8-tetrahydropyrido[3,4-d]pyrimidin-4-yl)piperazin-2-yl)acetonitrile], the “G12D x-linking (%)” value [1] is reported as “+ (0 < x ≤ 20)” and the “WT x-linking (%)” value [2] is reported as “+ (0 < x ≤ 20)”.
For CC(=O)N1C[C@@H]1CN1CCN(c2nc(OC[C@@H]3CCCN3C)nc3c2CCN(c2cccc4cccc(C)c24)C3)C[C@@H]1CC#N [Example 119, 2-((S)-1-(((S)-1-acetylaziridin-2-yl)methyl)-4-(7-(8-methylnaphthalen-1-yl)-2-(((S)-1-methylpyrrolidin-2-yl)methoxy)-5,6,7,8-tetrahydropyrido[3,4-d]pyrimidin-4-yl)piperazin-2-yl)acetonitrile], the “G12D x-linking (%)” value [1] was “+ (0 < x ≤ 20)” and the “WT x-linking (%)” value [2] was “+ (0 < x ≤ 20)”.
In the case of O=C([C@H]1CN1)N1CCN2c3ncnc4cc(-c5c(O)cccc5F)c(Cl)c(c34)OC[C@@H]2C1 [Example 120, ((R)-aziridin-2-yl)((8aS)-6-chloro-5-(2-fluoro-6-hydroxyphenyl)-8a,9,11,12-tetrahydropyrazino[2′,1′:3,4][1,4]oxazepino[5,6,7-de]quinazolin-10(8H)-yl)methanone], the “G12D x-linking (%)” value [1] is reported as 0 and the “WT x-linking (%)” value [2] is reported as 0.
In the case of O=C([C@@H]1CN1)N1CCN2c3ncnc4cc(-c5c(O)cccc5F)c(Cl)c(c34)OC[C@@H]2C1 [Example 121], the “G12D x-linking (%)” value [1] is reported as 0 and the “WT x-linking (%)” value [2] is reported as 0.
With Cc1ccc2[nH]ncc2c1-c1cc2ncnc3c2c(c1Cl)OCC[C@@H]1CN(C(=O)[C@@H]2CN2)CCN31 [Example 123] the “G12D x-linking (%)” value [1] was 0 and the “WT x-linking (%)” value [2] was 0.
With Cc1cccc2cccc(N3CCc4c(nc(OC[C@@H]5CCCN5C)nc4N4CC[C@@H](NC(=O)[C@H]5CN5)[C@@H](CC#N)C4)C3)c12 [Example 125] the “G12D x-linking (%)” value [1] was “+ (0 < x ≤ 20)” and the “WT x-linking (%)” value [2] was “+ (0 < x ≤ 20)”.
With Cc1cccc2cccc(N3CCc4c(nc(OC[C@@H]5CCCN5C)nc4N4CC[C@H](NC(=O)[C@H]5CN5)[C@@H](CC#N)C4)C3)c12 [Example 126] the “G12D x-linking (%)” value [1] was “+ (0 < x ≤ 20)” and the “WT x-linking (%)” value [2] was “+ (0 < x ≤ 20)”.
In the case of Cc1cccc2cccc(N3CCc4c(nc(OC[C@@H]5CCCN5C)nc4N4CC[C@H](NC(=O)[C@@H]5CN5)[C@@H](CC#N)C4)C3)c12 [Example 127], the “G12D x-linking (%)” value [1] is reported as “+ (0 < x ≤ 20)” and the “WT x-linking (%)” value [2] is reported as “+ (0 < x ≤ 20)”.
Cc1cccc2cccc(N3CCc4c(nc(OC[C@@H]5CCCN5C)nc4N4CC[C@@H](NC(=O)[C@@H]5CN5)[C@@H](CC#N)C4)C3)c12 [Example 128] was tested, and the “G12D x-linking (%)” value [1] was “+ (0 < x ≤ 20)” and the “WT x-linking (%)” value [2] was “+ (0 < x ≤ 20)”.
With Cc1cccc2cccc(N3CCc4c(nc(OC[C@@H]5CCCN5C)nc4N4CC[C@@H](NC(=O)C5CN5)C4)C3)c12 (stereo partly shown) [Example 129] the “G12D x-linking (%)” value [1] was “+ (0 < x ≤ 20)” and the “WT x-linking (%)” value [2] was 0.
In the case of Cc1cccc2cccc(N3CCc4c(nc(OC[C@@H]5CCCN5C)nc4N4CC[C@H](NC(=O)C5CN5)C4)C3)c12 (stereo partly shown) [Example 130], the “G12D x-linking (%)” value [1] is reported as “+ (0 < x ≤ 20)” and the “WT x-linking (%)” value [2] is reported as 0.
